According to patent US20240252586A1, “ENGINEERED ANTIMICROBIAL PEPTIDES AND USAGE THEREOF” (priority 2021, published 2024):
Read-outs that look alike come from different tables or passages of the source. Where no end group is shown, it is not given here.

Columns and labels:
[1] = system: Staphylococcus aureus ATCC 29213; experiment: Broth microdilution MIC, QC of stock (Study 2); format: cell-based
Method: (§1) The activity of SEQ ID NO: 1 stocks against relevant ATCC reference isolates was determined by broth microdilution for QC purposes in accordance with guidelines described by the Clinical and Laboratory Standards Institute.
(§2) The wells in columns 2-12 in a standard 96-well microdilution plate were filled with 150 μL of 0.002% P-80 PBS. […] Serial two-fold dilutions were conducted through column 11. The wells of column 12 contained no drug and served as the organism growth control well. This would become the “mother” plate from which “daughter” or test plates would be prepared. The daughter plates were loaded with 190 μL of CAMHB+0.002% polysorbate-80 (P-80), or RPMI with 0.002% P-80 by hand-pipetting.
(§3) A standardized inoculum of each evaluated organism was prepared per CLSI methods. Growth from agar plates was used to prepare a 0.5 McFarland suspension in saline for each organism. The 0.5 McFarland suspensions were diluted 1:20 in saline, and the diluted suspensions were used as the test inocula. The inocula were then transferred to daughter plates by delivering 10 μL of standardized inoculum into each well of the daughter plate, resulting in a final concentration ranging between 2.5×10^5 to 5×10^5 CFU/mL per well.
(§4) Plates were stacked and covered with a lid on the top plate, placed into plastic bags, and incubated at 35° C. for 16-20 hr in ambient air. Growth in the microplates was viewed from the bottom using a plate viewer. […] The MIC was read and recorded as the lowest concentration of drug (SEQ ID NO: 1) that inhibited visible growth of the organism.

[2] = system: Pseudomonas aeruginosa ATCC 27853; experiment: Broth microdilution MIC, QC of stock (Study 2); format: cell-based
Method: as §1, §2, §3, §4

[3] = system: Escherichia coli ATCC 25922; experiment: Broth microdilution MIC, QC of stock (Study 2); format: cell-based
Method: as §1, §2, §3, §4

S. epidermidis = experiment: Broth microdilution MIC, PJI isolates (Example 1); format: cell-based, Staphylococcus epidermidis; conditions: RPMI
Method: (§5) Imipenem, levofloxacin, tigecycline, linezolid, vancomycin, oxacillin, ceftazidime, colistin, and amikacin were tested as comparators. Testing was conducted in accordance with guidelines from the Clinical and Laboratory Standards Institute (CLSI; M7 and M100). Test organisms comprised reference strains from the American Type Culture Collection, the Centers for Disease Control Antibiotic Reference Bank and clinical isolates from the Micromyx repository.

E. Coli CDC 0451 = conditions: 1× MIC, PBS, without sodium bicarbonate
Method: (§6) Base test media for the TK assay were phosphate-buffered saline (PBS), water, and cation-adjusted Mueller-Hinton broth (CAMHB), all adjusted to pH 7.4 with sodium hydroxide (NaOH) or hydrochloric acid (HCl) and then filter-sterilized.
(§7) Double strength (2×) Dey/Engley neutralizing broth (D/E) was used as a neutralizer for dilution and plating during determination of CFU/mL at each TK assay time point. Track plating was conducted on TSAB for Staphylococcus aureus NRS382 and on TSA without sheep's blood for all other organisms. TSA was used for spread plate enumeration of CFU/mL during a pilot study testing toxicity of D/E to bacteria and neutralization of SEQ ID NO: 1 in D/E.
(§8) Drug stocks of 5120 μg/mL in water at pH 5 were diluted in PBS pH-7.4 to 100× the final concentrations desired for each TK assay and frozen at −20° C. until use.
(§9) The TK test panel was prepared in a 96-well deep well plate, where 890 μL of each test media and 10 μL of 100× drug stocks were added to the appropriate wells. A growth control containing no drug was included, where 10 μl of PBS (pH 7.4) was added in place of drug.
(§10) A cell suspension was prepared from growth of a freshly streaked plate equivalent to the turbidity of a 0.5 McFarland standard in PBS at (pH 7.4). Deep-well test panels prepared as described above were inoculated with 100 μL of the 0.5 McFarland cell suspension, targeting a final inoculum of approximately 1 to 2×10^7 CFU/mL. During the TK assay, the 96 deep-well plate was left on the bench top at room temperature.
(§11) Aliquots of 100 μL were removed from the test panel immediately (0 minutes), and at 2.5, 5, 10, 15, and 30 minutes, and mixed with 100 μL 2×D/E to neutralize the rapid bactericidal activity of SEQ ID NO: 1. Cells were then serially diluted ten-fold in 2× Dey/Engley broth four times yielding a dilution series ranging from 2 to 2×10-4. Ten microliters from each step of the dilution series were track-plated in duplicate on TSA to enumerate viable counts (CFU/mL). Plates were then incubated at 35° C. overnight.
(§12) The resulting colonies were counted, and viable counts (CFU/mL) were determined from the average count of the duplicate plates. The limit of detection (LOD) for the assay was 100 CFU/mL. The LOD reflects the average CFU/ml if just one colony grew from the least diluted sample (DF=2) between the two track plate replicates, where 10 μL had been plated. Log-transformed viable counts (log10 CFU/mL) were then plotted vs. time.

5 test isolates = conditions: PBS and H2O, 1× and 0.5× MIC, all evaluated organisms
Method: as §6, §7, §8, §9, §10, §11, §12

S. aureus NRS 384 = system: S. aureus NRS 384
Method: as §6, §7, §8, §9, §10, §11, §12

S. epidermidis MMX 8655 = conditions: by […]; 1× MIC; PBS and H2O
Method: as §6, §7, §8, §9, §10, §11, §12

A. baumannii = experiment: Broth microdilution MIC, PJI isolates (Example 1); format: cell-based, Acinetobacter baumannii; conditions: RPMI; N = 24
Method: as §5

[4] = system: Staphylococcus aureus SH1000; conditions: both concentrations (1 and 5 mg/mL)
Method: A bone tunnel in the tibial canal was created using a drill with a 1.2 mm or 1.6 mm tungsten carbide drill bit. The bone tunnel was then dried and treated to stimulate acute human PJI following primary arthroplasty. A Kirschner wire implant of 2 cm long with a 0.3 cm long top hook was placed in the bone tunnel and the wound was closed. Prior to closure of the superficial skin layer, 0.1 mL of 2×10^6 planktonic Staphylococcus aureus SH1000 (CFU/rabbit) in saline was injected into the joint space. A closure was performed, and a biofilm was allowed to become established over a period of 2 days.
At 2 days post infection, irrigation and debridement (I&D) was performed on the infected joint. […] Additionally, an intravenous administration of an antibiotic was administered. Bacterial burden was determined by colony forming unit (CFU) analysis.
Animals were observed up to 28 days. […] When an animal was sick or needed to be euthanized, the implant and a part of the tibia was collected post mortem and bacterial burden was determined by CFU analysis.
The following parameters and endpoints were evaluated in this study: X-ray for proper implant placement, bacterial burden by colony forming unit analysis (CFU), general clinical signs, detailed clinical signs, body weights, body weight changes, temperature, mortality, blood culture, erythrocyte sedimentation rate (ESR), and C-reactive protein levels (CRP). […]

P. aeruginosa = experiment: Broth microdilution MIC, PJI isolates (Example 1); format: cell-based, Pseudomonas aeruginosa; conditions: RPMI; N = 20
Method: as §5

RRWVRRVRRVWRRVVRVVRRWVRR [SEQ ID NO: 1]
MIC ([1]; CAMHB + 0.002% P-80): 4 µg/mL | MIC ([1]; RPMI + 0.002% P-80): 0.12 µg/mL | MIC ([2]; CAMHB + 0.002% P-80): 4 µg/mL | MIC ([2]; RPMI + 0.002% P-80): 0.5 µg/mL | MIC ([3]; CAMHB + 0.002% P-80): 2 µg/mL | MIC ([3]; RPMI + 0.002% P-80): 0.5 µg/mL | MIC50 (S. epidermidis; All S. epidermidis (N = 104)): 0.12 µg/mL | MIC90 (S. epidermidis; All S. epidermidis (N = 104)): 0.12 µg/mL | MIC50 (S. epidermidis; MRSE (N = 58)): 0.12 µg/mL | MIC90 (S. epidermidis; MRSE (N = 58)): 0.12 µg/mL | MIC50 (S. epidermidis; MSSE (N = 46)): 0.12 µg/mL | MIC90 (S. epidermidis; MSSE (N = 46)): 0.12 µg/mL | killing (log) (E. Coli CDC 0451): > 3 | log killing (5 test isolates): Greater than 1 log | log-kill (S. aureus NRS 384; 0 min, 0.5 and 1× MIC in H2O, absence of sodium bicarbonate): ≥ 3 log | log-kill (S. aureus NRS 384; after […], 1× MIC in PBS +/- sodium bicarbonate): ~3 log | log-kill (S. aureus NRS 384; by […], 0.5 and 1× MIC in H2O, presence of sodium bicarbonate): ≥ 3 log | log-kill (S. epidermidis MMX 8655): ~3 log | MIC50 (A. baumannii): 0.25 µg/mL | MIC90 (A. baumannii): 0.25 µg/mL | body weight vs control group [4]: no statistically significant bodyweight differences | MIC50 (P. aeruginosa): 1 µg/mL | MIC90 (P. aeruginosa): 1 µg/mL
